PubChem BioAssay (NCI)
Where “and” joins values, the source holds several entries; their conditions need not be identical. Equal values may be shown once.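 Protocol summary: plate cells (96-well), add compound at 5 concentrations, incubate 48 h, interpolate endpoints linearly. The concentration for 50% growth inhibition is given as GI50. The concentration for full growth arrest is given as TGI.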

Experiments:
Experiment in all cases: growth of human tumour cells (NCI), 48 h
A549 NSCLC = test system: A549 NSCLC
HCT-116 colon = test system: HCT-116 colon
HL-60(TB) leukemia = test system: HL-60(TB) leukemia
HOP-92 NSCLC = test system: HOP-92 NSCLC
K-562 leukemia = test system: K-562 leukemia
M14 melanoma = test system: M14 melanoma
NCI-H226 lung = test system: NCI-H226 lung
OVCAR-8 ovarian = test system: OVCAR-8 ovarian
U251 CNS = test system: U251 CNS
UO-31 renal = test system: UO-31 renal

Structure (SMILES)	TGI (A549 NSCLC) [µM]	TGI (HCT-116 colon) [µM]	TGI (HL-60(TB) leukemia)	TGI (HOP-92 NSCLC) [µM]	TGI (K-562 leukemia) [µM]	TGI (M14 melanoma) [µM]	TGI (NCI-H226 lung) [µM]	TGI (OVCAR-8 ovarian) [µM]	TGI (U251 CNS) [µM]	TGI (UO-31 renal) [µM]	GI50 (A549 NSCLC) [µM]	GI50 (HCT-116 colon) [µM]	GI50 (HL-60(TB) leukemia) [µM]	GI50 (HOP-92 NSCLC) [µM]	GI50 (K-562 leukemia) [µM]	GI50 (M14 melanoma) [µM]	GI50 (NCI-H226 lung) [µM]	GI50 (OVCAR-8 ovarian) [µM]	GI50 (U251 CNS) [µM]	GI50 (UO-31 renal) [µM]
COc1ccc2c(C(=O)O)cc3ccccc3c2c1OC	> 100	32.6	> 100 µM	44.3	80.6	30.7	71.9	56.8	> 100	30.9										
O=C1c2ccccc2C(=O)c2c(NC3CCCCC3)ccc(Nc3ccc(S(=O)(=O)O)cc3)c21	> 100	> 100	99.8 µM	> 100	> 100	> 100	> 100	> 100	88.7	> 100										
Nc1nccc(-c2c(-c3ccc(F)cc3)nn3cc(C(F)(F)F)ccc23)n1	> 25	> 25	> 25 µM	> 25	> 25	> 25	> 25	> 25	> 25	> 25	> 25	> 25	> 25	5.75	> 25	> 25	> 25	> 25	> 25	> 25
CCCCCCCCCCCCCCNC(=O)Nc1ccc(Cl)c(Cl)c1	> 100	> 23.3	> 40.1 µM	8.65	> 100	> 44.3	> 100	> 31.4	> 100		3.34	2.37	2.59	2.75	8.04	2.89	3.21	3.16	3.15	1.57
CCCCCCCCCCCC[C@@H](O)[C@H]1CC[C@H]([C@H](O)CC[C@H](O)[C@@H]2CC[C@@H](CCCCCCCC3=C[C@H](C)OC3=O)O2)O1	> 50	> 50	5.85 µM and > 50 µM	> 50	> 50	> 50	> 50	> 50	> 50	> 50	2.2	1.7	> 50	3.08	3	4.99		6.6	8.63	2.51
CCOC(=O)C1=C(NC)OCC1=O	> 100	> 100	> 100 µM	> 100	> 100	> 100	> 100	> 100	> 100	> 100										
CCC(c1ccccc1)c1noc(CCN(CC)CC)n1 (stereo not drawn)	> 100	43.4	54.5 µM	49.6	> 100	> 100	70.9	> 100	> 100	> 100	42.1	18.5	18.1	7.99	25.8	28.8	23.8	32.5	29.5	32.2
